Measured values as given in US11612604B2, “Methods of treating cancer with PLK4 inhibitors” (LUDWIG INSTITUTE FOR CANCER RESEARCH LTD, priority 2017, dated 2023).

Experiments:
[1] = test system: neuroblastoma cell lines (SH-SY5Y, CHP134, IMR32, CHP212, SK-N-SH, SK-N-F1); test: Proliferation (12-day passaging) assay, neuroblastoma cell lines; assay type: cell-based; conditions: 150 nM centrinone, 12 days, all 6 neuroblastoma cell lines
Description: (§1) All 6 of the neuroblastoma cell lines grew robustly in the presence of DMSO in 12-day passaging assays.
(§2) Plated cell numbers were adjusted to the cell line characteristics (doubling time and cell size). At 96-hour intervals, plates were harvested, counted and re-plated at 25,000-150,000 cells/plate. Cell counting was performed using a TC20 automated cell counter (Bio-Rad).

[2] = test system: CHP134 cells in which TRIM37 was deleted, p53 was knocked down, or both; test: Proliferation (12-day passaging) assay, CHP134 TRIM37 deletion / p53 knockdown cells; assay type: cell-based
Description: (§3) Cell lines: Cells were maintained in ATCC-recommended complete growth media with 100 U/mL penicillin and 100 μg/mL streptomycin at 37° C. and 5% CO2. The RPE-1 TRIM37Δ knockout cell line was previously described (Meitinger et al., 2016). The CHP134 and HCT116 TRIM37Δ knockout cell lines were generated by transfection and nucleofection, respectively, of preassembled RNPs using a TRIM37 specific gRNA ([…]). The CHP134 G95L cell line was generated as previously described (Wong et al., 2015). For generation of H2B-mRFP expressing cell lines, cells were infected with a H2B-mRFP expressing lentiviral construct (Meitinger et al., 2016). Populations of each cell line expressing H2B-mRFP were enriched by FACS. To knock down TP53 (p53), cells were infected with a lentivirus containing sh-p53 made using the plasmid shp53 pLKO.1 puro (Godar et al., Cell. 134:62-73 (2008)). Positive selection of sh-p53 expressing cells was performed 2 days after infection with 10 μg/ml puromycin.
as §2

[3] = test system: caspase-3/7 activity in 'Sensitive' neuroblastoma and 'Not Sensitive' (RPE1, BT-12, BT-16) cell lines; test: Caspase activation assay; assay type: cell-based; conditions: 150 nM centrinone, four cell cycle durations
[4] = test system: CHP134 cells harboring the G95L mutant PLK4; test: Proliferation (passaging) assay, CHP134 cells with G95L mutant PLK4; assay type: cell-based; conditions: 150 nM centrinone
Description: as §1, §3, §2

[5] = test system: CHP134 cells and CHP134 clones with varying TRIM37 levels; test: ATPlite cellular proliferation assay in CHP134 clones; assay type: cell-based; conditions: 5 days in 125 nM centrinone, WT CHP134 cells
Description: After CRISPR targeting, CHP134 clones with varying TRIM37 copy numbers were isolated and the levels of TRIM37 protein were measured by quantitative western blotting. Alpha-tubulin was used as a blotting control. Clones with TRIM37 levels between 12 and 64% of the levels in the WT cell line were isolated. […] Results are expressed as the percent of the value for the equivalent DMSO-treated control and are plotted versus measured TRIM37 protein level. […] Thus, for centrinone-treated CHP134 cells, mitotic success and cell viability both decreased as TRIM37 levels increased.

[6] = test system: control cell lines (HepG2, BT-12, BT-16, SK-ES-1, A673); test: Proliferation (12-day passaging) assay, control cell lines; assay type: cell-based; conditions: 150 nM centrinone, 12 days, five control cell lines
Description: as §1, §2

[7] = test system: breast cancer cell lines (BT474, MCF7, MDA-MB-231); test: Proliferation (passaging) assay, breast cancer cell lines; assay type: cell-based; conditions: 150 nM centrinone, BT474 and MCF7 (TRIM37 locus amplified)
Description: Sensitivity to centrosome removal correlated with TRIM37 copy number in breast cancer as well. FIG. 3A is a graph plotting TRIM37 copy number versus expression level for breast cancer cell lines (data from the CCLE database; (Barretina et al., 2012)).
as §2

[8] = test system: RPE1 cells and primary cell cultures; conditions: cited from earlier work
[9] = test system: RPE1, BT-12, BT-16, CHP212, CHP134 and SK-N-F1 cells; test: Assessing mitotic phenotypes and mitotic duration by live cell imaging; assay type: cell-based; conditions: for rates of anaphase failure and/or cell death during mitosis: three cell cycles in 150 nM centrinone
Description: To examine the effects of centrosome removal, progression through mitosis after centrosome depletion was analyzed in three control cell lines with low TRIM37 levels (RPE1, BT-12 and BT-16), and in the three cell lines with the highest TRIM37 levels (CHP212, CHP134 and SK-N-F1). All of the tested cell lines, with the exception of SK-N-F1, were p53+.
For cells that completed mitosis, the inventors measured mitotic duration to determine if they would be likely to die due to tripping the mitotic duration sensor. […] The mean duration of mitosis in control SK-N-F1 cells, a p53− neuroblastoma cell line, was longer (104.7 minutes).
Assessing mitotic phenotypes: First, the cell cycle duration of the indicated cell lines was determined for each cell line by imaging cells expressing H2B-mRFP for 48-72 hours. The mean time from the beginning the first mitosis (nuclear envelope breakdown) until the beginning of the second mitosis in each daughter cell was the cell line specific cell cycle duration. […] Cells were seeded into 96-well polystyrene plates at 10,000 cells/well, 14-16 hours before imaging. Images were acquired on a CQ1 spinning disk confocal systems (Yokogawa Electric Corporation) with an Olympus UPLSAPO40 X 40×0.95 objective and 2560×2160 sCMOS camera (Andor) at 37° C. and 5% CO2 at 2×2 binning. Image acquisition and data analysis were performed using CellVoyager software and ImageJ, respectively. 12-24 fields/well were imaged. 5×2 μm z-sections in RFP (25% power, 150 ms) channels were captured in each field at 4-minute intervals for 24 hours. Mitotic duration was measured as the interval between nuclear envelope breakdown and chromosome decondensation. Mitotic phenotypes were categorized into ‘bipolar’, ‘multipolar’, ‘cell death during mitosis’ and ‘anaphase failure’.

COc1c(Nc2cc(C)[nH]n2)nc(Sc2ccc(S(=O)(=O)Cc3cccc([N+](=O)[O-])c3F)cc2F)nc1N1CCOCC1 [centrinone]
cell number in passaging assay [1]: cell number rapidly declined to zero | proliferation in passaging assay ([2]; centrinone, CHP134 with TRIM37 deleted and p53 knocked down): robust proliferation in centrinone | proliferation in 12-day passaging assay ([2]; centrinone, CHP134 with shRNA-mediated knockdown of p53): allowed CHP134 cells to proliferate | proliferation in 12-day passaging assay ([2]; centrinone-treated CHP134, TRIM37 deletion): enabled their proliferation | caspase activity ([3]; 'Not Sensitive' cell lines (RPE1, BT-12, BT-16)): relatively low levels | caspase activity ([3]; three 'Sensitive' neuroblastoma cell lines): high levels of caspase activity | proliferation in passaging assay [4]: proliferated in centrinone at a rate comparable to non-mutant cells in DMSO | cellular proliferation (ATPlite), percent of DMSO-treated control [5]: loss in proliferation comparable to that of the two highest mutant clones | proliferation in passaging assay [6]: continued to proliferate | sensitivity to centrosome removal in passaging assay [7]: highly sensitive | response to centrinone-induced centrosome loss ([8]; RPE1 cells and 3 primary cell cultures with intact p53 pathway (Wong et al.)): stabilize p53 and arrest in G1 | effect on centriole duplication ([8]; centrinone treatment (Wong et al.)): blocks centriole duplication | mean duration of mitosis after centrosome removal ([9]; CHP134): 257 min | cells that fail to segregate their chromosomes ([9]; CHP134, absence of centrioles (FIG. 5A)): about 36% | mean duration of mitosis after centrosome removal ([9]; CHP212): 221 min | mitotic duration ([9]; control RPE1 cells and RPE1 TRIM37Δ reconstituted with wild-type TRIM37, after centrinone): substantial increase in mitotic duration | rates of anaphase failure and/or cell death during mitosis ([9]; cell lines with high TRIM37 levels (CHP212, CHP134, SK-N-F1)): 31-74% | rates of anaphase failure and/or cell death during mitosis ([9]; three cell lines with low TRIM37 levels (RPE1, BT-12, BT-16)): 3-14%
